{"source": "patent US20230381173A1", "about": "“METHODS AND PHARMACEUTICAL COMPOSITION FOR TREATING DISEASES” (TONGLI BIOMEDICAL CO. LTD., priority 2021, published 2023)", "key": {"[1]": {"test_system": "Neobenedenia melleni", "test": "Antiparasitic activity of medicated feed in infected yellow croaker", "type": "in vivo, large yellow croaker (Larimichthys crocea)", "conditions": "for Infectivity: Day 3", "source_text": "The purpose of this experiment was to evaluate palatability and efficacy of (R)-praziquantel Form B (R-PZQ) against Monogenean trematode infection (Neobenedenia melleni) in large yellow croaker (Larimichthys crocea). Praziquantel (PZQ) was used as a positive control.\nAll experimental yellow croakers (about 50-75 g BW/fish) were infected with Neobenedenia melleni, and the average infection intensity was 100-120 parasites/fish.\nFish were fed 2 times a day (morning and afternoon) at up to 4% BW per day. The medicated granular feed was prepared as descripted under section “LIQUID COMPOSITIONS AND SOLID FORMULATIONS CONTAINING (R)-PRAZIQUANTEL FORM B FOR AQUACULTURE AND FISH”. Briefly, the powders of (R)-praziquantel Form B ([…]) or praziquantel (PZQ) were mixed with 4% (v/v) squid oil. The resulting squid oil was subsequently top-dressed onto commercial feed granules. Control feed was prepared by top-dressing with 4% squid oil onto the feed granules without containing the compounds.\nDuring treatment, amount and time to consume the medicated (or control) feed by the fishes in each group were observed and scored for palatability as poor (+) to excellent (+++++). Two days after dosing (Day 3), each fish was soaked in water individually and the number of parasites was recorded separately."}, "[2]": {"test_system": "Dactylogyrus vastator", "test": "Bath treatment of Dactylogyrus infected goldfish", "type": "in vivo, goldfish (Carassius auratus)", "conditions": "bath 1.5 mg/L, 48 hours", "procedure": "(R)-praziquantel Form B was tested for use in treating fish parasites. Specifically, the effect of bath treatment of monogenean Dactylogyrus infected goldfish (Carassius auratus) was investigated. […] Two days after treatment, the number of attached parasites in whole gills of each fish was counted. Reduction rate=(average survival of worms in the blank control group−average survival of worms in the administration group)/average survival of worms in the blank control group×100%."}, "[3]": {"test": "Physicochemical characterization of Form B (hygroscopicity)"}, "[4]": {"conditions": "highest concentration of 10 mg/L", "procedure": "Goldfish were acclimatized to 22° C. water (pH 7˜7.5, dissolved oxygen>5 mL/L) and were challenged with Dactylogyrus vastator. When infection rate and infection intensity reached 100% and over 10 parasite/whole gills of each fish within about 10 days, the fish were then treated with various concentrations of the (R)-praziquantel Form B or praziquantel for 48 hours by bath. Infected fish […] were used as a control group. 20 infected fish were placed per concentration for each treatment."}, "[5]": {"test": "Accelerated solid state stability of anhydrate (Form B) and hemihydrate (R)-praziquantel, open and closed condition", "type": "physicochemical", "procedure": "The Accelerated Solid State Stability of the Anhydrate (Form B) and Hemihydrate (R)-Praziquantel in an Open and Closed Condition […] The accelerated solid-state stability of the anhydrate and hemihydrate (R)-praziquantel was determined by storing approximately 1.0 g of the material in a glass dish at a) the anhydrate at 45° C./75% (RH), closed, for 3 months. and b) 45° C./75% Relative Humidity (RH), open exposure condition, for 3 months. The material was assayed by KF, TGA and HPLC for final content and degradation products."}, "[6]": {"test": "Long-term stability of (R)-praziquantel Form B API", "type": "physicochemical", "conditions": "for Appearance / Assay(Anhydrous basis) / Chiral Purity / Purity / Related Substances, largest single impurity (RRT = 0.60) / Related Substances, total impurities / XRPD Characterization / Water Content: 25° C., 60% relative humidity; for Water Content: Karl Fischer", "procedure": "Accurately weigh about 0.1-0.5 g of sample of Form B and transfer it to KF titrator container (aldehyde ketone Volumetric method), measure the samples according to USP<921>. The active pharmaceutical ingredient (API) of Form B was stored for 18 months under different storage conditions: 25° C. and 60% relative humidity, 30° C. and 65% relative humidity, and 40° C. and 75% relative humidity, in a sealed and open condition. […] In some embodiments, under various storage conditions the anhydrous API provided herein can be stable and water content controlled under 0.5% and monitored by KF for at least, or at least about, 3 months, 6 months, 9 months, 12 months, 18 months, 24 months and 36 months. For example, under storage conditions of 25° C. and 60% relative humidity, the tablets and API provided herein can be stable for at least, or at least about, 3 months, 6 months, 9 months, 12 months and 18 months."}, "[7]": {"test_system": "isolated rat atria", "conditions": "cited from earlier work"}, "[8]": {"conditions": "at the same dose level; cited from earlier work"}, "[9]": {"conditions": "cited from earlier work"}, "[10]": {"conditions": "rabbit, in vivo; cited from earlier work"}, "[11]": {"conditions": "medicated feed 75 mg/kg × 2 days"}, "[12]": {"conditions": "medicated feed 37 mg/kg × 2 days"}, "[13]": {"conditions": "Closed condition, 45° C./75% RH, 3 months"}, "[14]": {"conditions": "Open, 45° C., RH75%, T3 (3 months)"}, "[15]": {"conditions": "Opened condition, 45° C./75% RH, 3 months"}, "[16]": {"conditions": "Sealed, 45° C., RH75%, T3 (3 months)"}}}
{"smiles": "O=C(C1CCCCC1)N1CC(=O)N2CCc3ccccc3C2C1", "note": "(racemic) [Praziquantel, reference compound]", "values": [{"measurement": "Mortality", "setting": "[1]; [11]", "value": 3, "unit": "%"}, {"measurement": "Infectivity", "setting": "[1]; [11]", "value": 54, "unit": "%"}, {"measurement": "Infection rate", "setting": "[2]", "value": 100, "unit": "%"}, {"measurement": "Worm reduction", "setting": "[2]", "value": 45, "unit": "%"}]}
{"smiles": "O=C(C1CCCCC1)N1CC(=O)N2CCc3ccccc3[C@@H]2C1", "note": "[(R)-praziquantel Form B, (R)-2-(cyclohexanecarbonyl)-2,3,6,7-tetrahydro-1H-pyrazino[2,1-a] isoquinolin-4(11bH)-one]", "values": [{"measurement": "Hygroscopicity", "setting": "[3]", "value": "slightly hygroscopic"}, {"measurement": "Mortality", "setting": "[1]; [12]", "value": 0, "unit": "%"}, {"measurement": "Infectivity", "setting": "[1]; [12]", "value": 35, "unit": "%"}, {"measurement": "Mortality", "setting": "[1]; [11]", "value": 0, "unit": "%"}, {"measurement": "Infectivity", "setting": "[1]; [11]", "value": 6, "unit": "%"}, {"measurement": "Antiparasitic efficacy", "setting": "[1]; oral treatment", "value": "dose dependent and superior to PZQ"}, {"measurement": "Toxic effect in the treated fish", "setting": "[4]", "value": "no toxic effect"}, {"measurement": "Degradation (HPLC)", "setting": "[5]; [13]", "value": "no significant degradation observed"}, {"measurement": "Water uptake (KF)", "setting": "[5]; [13]", "value": "≤ 0.3", "unit": "%"}, {"measurement": "Water content (KF)", "setting": "[5]; Open, 45° C., RH75%, T0, listed as Anhydrate", "value": 1.30, "unit": "%"}, {"measurement": "Water content (KF)", "setting": "[5]; Open, 45° C., RH75%, T0, listed as anhydrate", "value": 1.3, "unit": "%"}, {"measurement": "Impurities by HPLC, RRT 0.6", "setting": "[5]; [14]", "value": "RRT 0.6: 0.04%"}, {"measurement": "Water content (KF)", "setting": "[5]; Open, 45° C., RH75%, T3 (3 months), listed as Anhydrate", "value": 2.50, "unit": "%"}, {"measurement": "Water content (KF)", "setting": "[5]; Open, 45° C., RH75%, T3 (3 months), listed as anhydrate", "value": "about 2.5%"}, {"measurement": "Degradation (HPLC)", "setting": "[5]; [15]", "value": "no significant degradation observed"}, {"measurement": "Impurity peaks found (HPLC)", "setting": "[5]; [15]", "value": "none of impurity peak found"}, {"measurement": "Water content (KF)", "setting": "[5]; Sealed, 45° C., RH75%, T0", "value": 0.24, "unit": "%"}, {"measurement": "Impurities by HPLC, RRT 0.6", "setting": "[5]; [16]", "value": "RRT 0.6: 0.04%"}, {"measurement": "Water content (KF)", "setting": "[5]; [16]", "value": 0.32, "unit": "%"}, {"measurement": "Storage stability of API", "setting": "[6]; 18 months, 25° C./60% RH, 30° C./65% RH, 40° C./75% RH, sealed and open", "value": "good stability"}, {"measurement": "Appearance", "setting": "[6]; 18 M", "value": "White solid"}, {"measurement": "Assay(Anhydrous basis)", "setting": "[6]; 18 M", "value": 101.00, "unit": "%"}, {"measurement": "Chiral Purity", "setting": "[6]; 18 M", "value": 100.00, "unit": "%"}, {"measurement": "Purity", "setting": "[6]; 18 M", "value": 99.90, "unit": "%"}, {"measurement": "Related Substances, largest single impurity (RRT = 0.60)", "setting": "[6]; 18 M", "value": "RRT = 0.60: 0.03%"}, {"measurement": "Related Substances, total impurities", "setting": "[6]; 18 M", "value": 0.11, "unit": "%"}, {"measurement": "XRPD Characterization", "setting": "[6]; 18 M", "value": "Conforms"}, {"measurement": "Appearance", "setting": "[6]; Initial (0 M)", "value": "White solid"}, {"measurement": "Assay(Anhydrous basis)", "setting": "[6]; Initial (0 M)", "value": 99.80, "unit": "%"}, {"measurement": "Chiral Purity", "setting": "[6]; Initial (0 M)", "value": 100.00, "unit": "%"}, {"measurement": "Purity", "setting": "[6]; Initial (0 M)", "value": 99.90, "unit": "%"}, {"measurement": "Related Substances, largest single impurity (RRT = 0.60)", "setting": "[6]; Initial (0 M)", "value": "RRT = 0.60: 0.04%"}, {"measurement": "Related Substances, total impurities", "setting": "[6]; Initial (0 M)", "value": 0.10, "unit": "%"}, {"measurement": "XRPD Characterization", "setting": "[6]; Initial (0 M)", "value": "Conforms"}, {"measurement": "Water Content", "setting": "[6]; 18 M", "value": 0.27, "unit": "%"}, {"measurement": "Water Content", "setting": "[6]; Initial (0 M)", "value": 0.50, "unit": "%"}, {"measurement": "Infection rate", "setting": "[2]", "value": 100, "unit": "%"}, {"measurement": "Worm reduction", "setting": "[2]", "value": 98, "unit": "%"}]}
{"smiles": "O=C(C1CCCCC1)N1CC(=O)N2CCc3ccccc3[C@@H]2C1", "note": "[(R)-praziquantel]", "values": [{"measurement": "Cardiac toxicity", "setting": "[7]", "value": "lower cardiac toxicity than (S)-praziquantel"}, {"measurement": "Anthelmintic efficacy", "setting": "[8]", "value": "better than that of praziquantel"}, {"measurement": "Observed side effects", "setting": "[9]; after oral administration (drowsiness, gastric nausea or photosensitivity rash)", "value": "relatively mild"}, {"measurement": "Serious adverse reactions", "setting": "[9]; after oral administration", "value": "No serious adverse reactions"}, {"measurement": "Cardiac toxicity", "setting": "[10]", "value": "lower cardiac toxicity than (S)-praziquantel"}]}
{"smiles": "O=C(C1CCCCC1)N1CC(=O)N2CCc3ccccc3[C@H]2C1", "note": "[(S)-praziquantel, reference compound]", "values": [{"measurement": "Anthelmintic efficacy", "setting": "[8]", "value": "almost no activity"}]}
{"smiles": "O.O=C(C1CCCCC1)N1CC(=O)N2CCc3ccccc3[C@@H]2C1.O=C(C1CCCCC1)N1CC(=O)N2CCc3ccccc3[C@@H]2C1", "note": "[Hemihydrate, reference compound]", "values": [{"measurement": "Water content (KF)", "setting": "[5]; Open, 45° C., RH75%, T0", "value": 2.80, "unit": "%"}, {"measurement": "Impurities by HPLC, RRT 0.6", "setting": "[5]; [14]", "value": "RRT0.6: 0.17%,"}, {"measurement": "Impurities by HPLC, RRT 0.9", "setting": "[5]; [14]", "value": "RRT0.9: 0.13%"}, {"measurement": "Water content (KF)", "setting": "[5]; [14]", "value": 2.50, "unit": "%"}, {"measurement": "Impurity peaks found (HPLC)", "setting": "[5]; [15]", "value": "two"}, {"measurement": "Percent total impurities", "setting": "[5]; [15]", "value": "exceed 0.3%"}]}
